Data reported in PubChem BioAssay (NCI).
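Grown in 96-well plates, cells were treated for 48 hours with each compound at five concentrations. Insufficient inhibition: endpoint recorded as highest concentration tested. GI50: concentration for 50% inhibition of growth. At the TGI there is no net growth.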

Tests used:
Assay in all cases: growth of human tumour cells (NCI), 48 h
786-0 renal = test system: 786-0 renal
A498 renal = test system: A498 renal
A549 NSCLC = test system: A549 NSCLC
ACHN renal = test system: ACHN renal
CAKI-1 renal = test system: CAKI-1 renal
CCRF-CEM leukemia = test system: CCRF-CEM leukemia
COLO 205 colon = test system: COLO 205 colon
DU-145 prostate = test system: DU-145 prostate
EKVX NSCLC = test system: EKVX NSCLC
HCC-2998 colon = test system: HCC-2998 colon
HCT-116 colon = test system: HCT-116 colon
HCT-15 colon = test system: HCT-15 colon
HL-60(TB) leukemia = test system: HL-60(TB) leukemia
HOP-62 NSCLC = test system: HOP-62 NSCLC
HOP-92 NSCLC = test system: HOP-92 NSCLC
HS 578T breast = test system: HS 578T breast
HT29 colon = test system: HT29 colon
IGROV1 ovarian = test system: IGROV1 ovarian
K-562 leukemia = test system: K-562 leukemia
KM12 colon = test system: KM12 colon
LOX IMVI melanoma = test system: LOX IMVI melanoma
M14 melanoma = test system: M14 melanoma
MALME-3M melanoma = test system: MALME-3M melanoma
MCF7 breast = test system: MCF7 breast
MDA-MB-231 breast = test system: MDA-MB-231 breast
MDA-MB-435 = test system: MDA-MB-435
MOLT-4 leukemia = test system: MOLT-4 leukemia
NCI-H226 lung = test system: NCI-H226 lung
NCI-H460 lung = test system: NCI-H460 lung
NCI-H522 lung = test system: NCI-H522 lung
NCI/ADR-RES ovarian = test system: NCI/ADR-RES ovarian
OVCAR-3 ovarian = test system: OVCAR-3 ovarian
OVCAR-4 ovarian = test system: OVCAR-4 ovarian
OVCAR-5 ovarian = test system: OVCAR-5 ovarian
PC-3 prostate = test system: PC-3 prostate
RPMI-8226 leukemia = test system: RPMI-8226 leukemia
RXF 393 renal = test system: RXF 393 renal
SF-268 CNS = test system: SF-268 CNS
SF-295 CNS = test system: SF-295 CNS
SF-539 CNS = test system: SF-539 CNS
SK-MEL-2 melanoma = test system: SK-MEL-2 melanoma
SK-MEL-28 melanoma = test system: SK-MEL-28 melanoma
SK-OV-3 ovarian = test system: SK-OV-3 ovarian
SN12C renal = test system: SN12C renal
SNB-19 CNS = test system: SNB-19 CNS
SNB-75 CNS = test system: SNB-75 CNS
SR leukemia = test system: SR leukemia
SW-620 colon = test system: SW-620 colon
T-47D breast = test system: T-47D breast
TK-10 renal = test system: TK-10 renal
U251 CNS = test system: U251 CNS
UACC-257 melanoma = test system: UACC-257 melanoma
UACC-62 melanoma = test system: UACC-62 melanoma
UO-31 renal = test system: UO-31 renal

NC(=O)c1cc(-c2ccc3ncnc(N4CCc5cc(F)c(Cl)cc54)c3c2)cnc1N
GI50 (786-0 renal): 1190 nM | TGI (786-0 renal): 10400 nM | GI50 (A498 renal): 336 nM | TGI (A498 renal): 2460 nM | GI50 (A549 NSCLC): 1050 nM | TGI (A549 NSCLC): 13400 nM | GI50 (ACHN renal): 801 nM | TGI (ACHN renal): 17000 nM | GI50 (CAKI-1 renal): 529 nM | TGI (CAKI-1 renal): 17000 nM | GI50 (CCRF-CEM leukemia): 2950 nM | TGI (CCRF-CEM leukemia): 34800 nM | GI50 (COLO 205 colon): 2700 nM | TGI (COLO 205 colon): 21400 nM | GI50 (DU-145 prostate): 1790 nM | TGI (DU-145 prostate): 27400 nM | GI50 (EKVX NSCLC): 806 nM | TGI (EKVX NSCLC): 15300 nM | GI50 (HCC-2998 colon): 1680 nM | TGI (HCC-2998 colon): 7090 nM | GI50 (HCT-116 colon): 1220 nM | TGI (HCT-116 colon): 2810 nM | GI50 (HCT-15 colon): 2020 nM | TGI (HCT-15 colon): > 100000 nM | GI50 (HL-60(TB) leukemia): 573 nM | TGI (HL-60(TB) leukemia): 6180 nM | GI50 (HOP-62 NSCLC): 1370 nM | TGI (HOP-62 NSCLC): 7220 nM | GI50 (HOP-92 NSCLC): 231 nM | TGI (HOP-92 NSCLC): 2630 nM | GI50 (HS 578T breast): 839 nM | TGI (HS 578T breast): 7650 nM | GI50 (HT29 colon): 1140 nM | TGI (HT29 colon): 9760 nM | GI50 (IGROV1 ovarian): 279 nM | TGI (IGROV1 ovarian): 1620 nM | GI50 (K-562 leukemia): 3350 nM | TGI (K-562 leukemia): > 100000 nM | GI50 (KM12 colon): 2330 nM | TGI (KM12 colon): 10900 nM | GI50 (LOX IMVI melanoma): 1690 nM | TGI (LOX IMVI melanoma): 12300 nM | GI50 (M14 melanoma): 2840 nM | TGI (M14 melanoma): 41400 nM | GI50 (MALME-3M melanoma): 1510 nM | TGI (MALME-3M melanoma): 15200 nM | GI50 (MCF7 breast): 317 nM | TGI (MCF7 breast): 2150 nM | GI50 (MDA-MB-231 breast): 2020 nM | TGI (MDA-MB-231 breast): 16200 nM | GI50 (MDA-MB-435): 2300 nM | TGI (MDA-MB-435): > 100000 nM | GI50 (MOLT-4 leukemia): 1250 nM | TGI (MOLT-4 leukemia): 6230 nM | GI50 (NCI-H226 lung): 3040 nM | TGI (NCI-H226 lung): 33100 nM | GI50 (NCI-H460 lung): 1300 nM | TGI (NCI-H460 lung): 3960 nM | GI50 (NCI-H522 lung): 1550 nM | TGI (NCI-H522 lung): 4720 nM | GI50 (NCI/ADR-RES ovarian): 3220 nM | TGI (NCI/ADR-RES ovarian): > 100000 nM | GI50 (OVCAR-3 ovarian): 1670 nM | TGI (OVCAR-3 ovarian): 10000 nM | GI50 (OVCAR-4 ovarian): 1280 nM | TGI (OVCAR-4 ovarian): 2950 nM | GI50 (OVCAR-5 ovarian): 1820 nM | TGI (OVCAR-5 ovarian): 47900 nM | GI50 (PC-3 prostate): 976 nM | TGI (PC-3 prostate): 5270 nM | GI50 (RPMI-8226 leukemia): 1390 nM | TGI (RPMI-8226 leukemia): 11300 nM | GI50 (RXF 393 renal): 656 nM | TGI (RXF 393 renal): 2590 nM | GI50 (SF-268 CNS): 1880 nM | TGI (SF-268 CNS): 49800 nM | GI50 (SF-295 CNS): 1470 nM | TGI (SF-295 CNS): 4260 nM | GI50 (SF-539 CNS): 1490 nM | TGI (SF-539 CNS): 3560 nM | GI50 (SK-MEL-2 melanoma): 1540 nM | TGI (SK-MEL-2 melanoma): 4020 nM | GI50 (SK-MEL-28 melanoma): 2670 nM | TGI (SK-MEL-28 melanoma): 28500 nM | GI50 (SK-OV-3 ovarian): 1090 nM | TGI (SK-OV-3 ovarian): 4180 nM | GI50 (SN12C renal): 1030 nM | TGI (SN12C renal): 25000 nM | GI50 (SNB-19 CNS): 1820 nM | TGI (SNB-19 CNS): > 100000 nM | GI50 (SNB-75 CNS): 524 nM | TGI (SNB-75 CNS): 5800 nM | GI50 (SR leukemia): 1870 nM | TGI (SR leukemia): 16200 nM | GI50 (SW-620 colon): 2410 nM | TGI (SW-620 colon): 19400 nM | GI50 (T-47D breast): 273 nM | TGI (T-47D breast): 2360 nM | GI50 (TK-10 renal): 519 nM | TGI (TK-10 renal): 27900 nM | GI50 (U251 CNS): 2440 nM | TGI (U251 CNS): 18800 nM | GI50 (UACC-257 melanoma): 2830 nM | TGI (UACC-257 melanoma): > 100000 nM | GI50 (UACC-62 melanoma): 1620 nM | TGI (UACC-62 melanoma): 18300 nM | GI50 (UO-31 renal): 311 nM | TGI (UO-31 renal): 10600 nM
